Reference: PubChem BioAssay AID1288 (Columbia University Molecular Screening Center, 2008)
Active and inactive are the calls of the source. No rule for the calls is given here.

Assay: E-selectin induction blockers, endothelial cells – imaging, retest plus dose response, cell count, confirmation (AID 1288);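 also: 0% = stimulated vehicle wells and 100% = unstimulated vehicle wells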
Conditions: human endothelial cells, TNFa-induced E-selectin, imaging; at 2 µM; stronger effect = higher value

With `Cc1ccc(N2C(=O)[C@@H]3C(C(=O)CCN4C(=O)c5ccccc5C4=O)=NN[C@@H]3C2=O)cc1` the inhibition was 6.74% (inactive).
In the case of `O=C(NCc1nc(-c2ccccc2)no1)c1ccc2c(c1)OCO2`, the inhibition is reported as 24.1% (inactive).
In the case of `Cn1c(N)c(C(=O)COC(=O)CN2C(=O)c3ccccc3C2=O)c(=O)n(C)c1=O`, the inhibition is reported as 17.5% (inactive).
With `COc1ccc(/C(O)=C2/C(=O)C(=O)N(Cc3cccnc3)C2c2ccncc2)cc1F` (stereo not given) the inhibition was 19.1% (inactive).
With `CCOC(=O)/C(C#N)=C1/C=Cc2ccccc2N1CC` the inhibition was 10.7% (inactive).
In the case of `Fc1ccccc1SCc1nnc(-c2ccccc2Br)o1`, the inhibition is reported as 9.24% (inactive).
In the case of `Cc1ccc(C)c(NC(=O)CSc2nnc([C@@H](N)Cc3ccccc3)o2)c1`, the inhibition is reported as 13.6% (inactive).
For `COc1ccc(OC)c2sc(NC(=O)CCS(=O)(=O)c3ccccc3)nc12`, the inhibition was 5.59% (inactive).
With `O=C(O)CSC1c2ccccc2C(=O)N1Cc1ccccc1` (stereo not given) the inhibition was 2.25% (inactive).
In the case of `CO/C([O-])=N/c1c[n+](-c2ccc(Cl)cc2)no1`, the inhibition is reported as 26.1% (inactive).
With `O=C(c1cnccn1)N1CCN(c2ccccc2)CC1` the inhibition was 30.4% (inactive).
In the case of `CCOC(=O)c1sc(=N)n(-c2ccc(OC)cc2)c1C`, the inhibition is reported as -1.33% (inactive).
With `CCS(=O)(=O)N1CCCC(C(=O)NCc2cccc(OC)c2)C1` (stereo not given) the inhibition was 12.7% (inactive).
In the case of `Cc1ccc2cc(C#N)c(N3CCCC3)nc2c1C`, the inhibition is reported as 8.05% (inactive).
With `O=C(CN(C(=O)CCC(=O)Nc1ccccn1)c1ccc2c(c1)OCO2)NCc1ccco1` the inhibition was 36.3% (inactive).
With `Cc1ccc(C(=O)c2c(NC(=O)c3ccccc3C)sc(C)c2C)cc1` the inhibition was 4.34% (inactive).
In the case of `COc1ccc(CCN(C)c2ccc(S(=O)(=O)N3CCCC3)cn2)cc1OC`, the inhibition is reported as 28.4% (inactive).
With `N#Cc1cc2sc3nnc(-c4ccncc4)n3c2cc1C#N` the inhibition was 24.9% (inactive).
In the case of `COCCCNC(=S)N1CCN(c2ccc([N+](=O)[O-])cc2)CC1`, the inhibition is reported as 20% (inactive).
In the case of `O=C(c1cccs1)N(C(=O)c1cccs1)c1ccc(Br)cn1`, the inhibition is reported as 15.4% (inactive).
For `O=C(CN(CC1CCCO1)C(=O)CCC(=O)Nc1nccs1)NCc1ccc2c(c1)OCO2` (stereo not given), the inhibition was 33.3% (inactive).
For `Cn1c(SCc2ccc(Br)cc2)nnc1-c1ccncc1`, the inhibition was 0.83% (inactive).
For `CC(CCc1ccccc1)NC(=O)/C=C/c1ccc(Cl)cc1` (stereo not given), the inhibition was 14.9% (inactive).
For `COc1ccc(/C=N/NC(=O)C(C)n2cnc3ccccc3c2=O)cc1OC` (stereo not given), the inhibition was -0.71% (inactive).
With `Nn1c(CN2CCCCC2)nc2ccccc2c1=O` the inhibition was 12.2% (inactive).
In the case of `C/C(=N\NC(=O)CN(c1ccccc1Br)S(C)(=O)=O)c1ccc2c(c1)OCCO2`, the inhibition is reported as 1.65% (inactive).
For `CCCCOc1ccc(-c2nnn(C(C)C(=O)OCC)n2)cc1` (stereo not given), the inhibition was 27.1% (inactive).
In the case of `CCc1cccc(CC)c1NC(=O)COC(=O)c1cccc(-c2ccc(OC(C)=O)cc2)c1`, the inhibition is reported as 1.97% (inactive).
With `Cn1c(=O)[nH]c(=O)c2c1nc(CN1CCN(Cc3ccccc3)CC1)n2CC(N)=O` the inhibition was 8.32% (inactive).
In the case of `CCCOc1ccc(C(=O)NCC(c2cccs2)N(C)C)cc1` (stereo not given), the inhibition is reported as -0.69% (inactive).
In the case of `COc1ccc(NC(=O)c2ccc(CNc3c(NC4CCCCC4)c(=O)c3=O)cc2)cc1OC`, the inhibition is reported as 3.32% (inactive).
With `COc1ccc(CNC(=O)c2ccc(NC(=O)CC3SC(N4CCCCC4)=NC3=O)cc2)cc1` (stereo not given) the inhibition was 4.81% (inactive).
For `Cc1ccc(CNc2ccc(S(=O)(=O)N3CCOCC3)cc2[N+](=O)[O-])cc1`, the inhibition was 0.77% (inactive).
With `C1=C(c2ccc(-c3ccccc3)cc2)Nc2ncnn2C1c1ccco1` (stereo not given) the inhibition was 26.2% (inactive).
With `c1csc(C(c2nnnn2C2CCCC2)N2CCCC3(CCCCC3)C2)c1` (stereo not given) the inhibition was -3.21% (inactive).
In the case of `CCSc1nnc(-c2cccs2)o1`, the inhibition is reported as 6.52% (inactive).
With `Cn1cc([N+](=O)[O-])c(C(=O)Nc2ccc(Br)cn2)n1` the inhibition was 7.96% (inactive).
In the case of `Cc1cc(C)nc(/N=C2\NC(=O)CC(C(=O)O)N2c2ccc(Cl)cc2Cl)n1` (stereo not given), the inhibition is reported as 0.87% (inactive).
For `O=C(Nc1cc2ccccc2oc1=O)c1ccccc1`, the inhibition was 7.06% (inactive).
For `Cc1cc(C(=O)CN2C(=O)NC(c3ccccc3)(c3ccccc3)C2=O)c(C)n1Cc1ccco1`, the inhibition was -3.9% (inactive).
With `CCOC(=O)Cc1csc(NC(=O)COc2ccc(OC)cc2)n1` the inhibition was 6.28% (inactive).
For `CCOC(=O)C1C(=O)CC(C)(O)C(C(=O)OCC)C1c1ccccc1` (stereo not given), the inhibition was -2.22% (inactive).
In the case of `Cc1ccc(C2(C)NC(=O)N(CCOc3ccccc3)C2=O)cc1` (stereo not given), the inhibition is reported as 3.16% (inactive).
With `NC(=O)NOCc1ccccc1` the inhibition was -1.04% (inactive).
For `O=c1[nH][nH]cc1C=Nc1ccc(Cl)cc1`, the inhibition was 46.9% (inactive).
With `c1ccc(NC2=NCCCCS2)cc1` the inhibition was 15.9% (inactive).
With `CCS(=O)(=O)NCC(c1ccco1)N1CCN(c2ccccc2)CC1` (stereo not given) the inhibition was 0.44% (inactive).
With `CN(C)S(=O)(=O)N1CCN(CC(=O)Nc2cc(Cl)ccc2Cl)CC1` the inhibition was -3.1% (inactive).
In the case of `O=C(CSc1ncccn1)NCc1ccccc1Cl`, the inhibition is reported as 32.9% (inactive).
In the case of `CCc1cc(OCCOCCN(C)C)ccc1Cl`, the inhibition is reported as 8.67% (inactive).
